Data published in US20070037823A1, “Substituted piperidine and piperazine derivatives as melanocortin-4 receptor modulators” (priority 2003, published 2007).

Columns and labels:
hMC4-R [1] = target: T1, hMC4-R (Homo sapiens, UniProt P32245); experiment: Membrane binding assay, fluorescence labeled NDP-alpha-MSH competition (fluorescence polarization); conditions: HEK293 cell membrane preparations
T1 construct: expressed in transfected cells; host or cells: HEK293 cells
Description: A membrane binding assay is used to identify competitive inhibitors of fluorescence labeled NDP-alpha-MSH binding to HEK293 cell membrane preparations expressing human melanocortin receptors.
The test compound or unlabeled NDP-alpha-MSH is dispensed at varying concentrations to a 384 well microtiter plate. Fluorescence labeled NDP-alpha-MSH is dispensed at a single concentration, followed by addition of membrane preparations. The plate is incubated for 5 h at room temperature.
The degree of fluorescence polarization is determined with a fluorescence polarization microplate reader.

hMC4-R [2] = target: T1, hMC4-R; experiment: Functional cellular cAMP assay in HEK293 cells (fluorescence polarization); type: cell-based; conditions: for % activation functional assay: cAMP compared to stimulation with NDP-alpha-MSH; for EC50: HEK293 cells, cAMP production
Description: A functional cellular assay, based on competition between unlabeled cAMP and a fixed quantity of fluorescence labeled cAMP for a limited number of binding sites on a cAMP specific antibody, is used to discriminate melanocortin receptor agonists from antagonists by fluorescence polarization.
HEK293 cells expressing one of the human melanocortin receptors are transferred to 384 well microtiter plates, an appropriate amount of cAMP antibody is added, followed by the addition of different concentrations of the test compound to effect cAMP production. Cells are lysed and a fluorescence labeled cAMP conjugate is dispensed. The plate is read on a fluorescence polarization microplate reader and the amount of cAMP produced as a response to a test compound is compared to the production of CAMP resulting from stimulation with NDP-alpha-MSH. […]

male Wistar rats = experiment: Spontaneous feeding paradigm (food intake); type: in vivo, rat; conditions: 10 mg/kg p.o.; for increase in cumulative food intake: compared to vehicle control
Description: Food intake in rats is measured after i.p. or p.o. administration of the test compound (see e.g. Chen, A. S. et al. Transgenic Res April 2000; 9(2):145-54).
3-4 Hours following the onset of the light-phase, individually housed, male Wistar rats (200-300 g) receive an ip injection or po application of test compound or vehicle in an administration volume of 2 ml/kg. Following the administration of substances (1-30 mg/kg), a pre-weighed amount of normal laboratory chow is placed into the food hopper. Food remaining is measured by hand at 1-2 hour intervals for up to 8 hours. Differences in food intake between test-compound and vehicle-treated rats are evaluated.

[3] = 2 hours following administration
[4] = 4 hours following administration

T1 sequence (P32245 whole entry): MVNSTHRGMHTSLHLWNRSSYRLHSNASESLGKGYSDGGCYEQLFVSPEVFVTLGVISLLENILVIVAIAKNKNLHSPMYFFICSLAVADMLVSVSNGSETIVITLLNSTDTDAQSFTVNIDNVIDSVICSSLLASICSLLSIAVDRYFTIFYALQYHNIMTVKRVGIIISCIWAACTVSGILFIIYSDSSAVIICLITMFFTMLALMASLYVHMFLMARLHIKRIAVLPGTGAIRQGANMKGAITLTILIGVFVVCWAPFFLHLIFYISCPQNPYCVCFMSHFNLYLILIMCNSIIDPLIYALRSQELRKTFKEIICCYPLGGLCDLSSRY

Row | Structure (SMILES) | IC50 (hMC4-R [1]) [µM] | % activation functional assay (hMC4-R [2]) | activity in the spontaneous feeding paradigm (increase in food intake) (male Wistar rats) | increase in cumulative food intake (male Wistar rats; [3]) [%] | increase in cumulative food intake (male Wistar rats; [4]) [%] | increase in cumulative food intake (male Wistar rats; 6 hours following administration) [%] | EC50 (hMC4-R [2]) [µM]
1 | CC(C)(C)NC(=O)C1(C2CCCCC2)CCN(C[C@H](Cc2ccc(Cl)cc2)NC(=O)[C@H]2Cc3ccccc3CN2)CC1.Cl [Example 1] | 0.7 | no activation | active | 2700 | 700 | 175 | –
2 | CC(C)(C)NC(=O)C1(C2CCCCC2)CCN(C[C@@H](Cc2ccc(Cl)cc2)NC(=O)[C@H]2Cc3ccccc3CN2)CC1.Cl [Example 2] | 0.72 | 80% | – | – | – | – | 3.1
3 | CC(C)(C)NC(=O)C1(C2CCCCC2)CCN(C[C@@H](Cc2ccc(Cl)cc2)NC(=O)[C@@H]2Cc3ccccc3CN2)CC1.Cl [Example 3] | 0.42 | no activation | – | – | – | – | –
4 | CC(C)(C)NC(=O)C1(C2CCCCC2)CCN(CC[C@@H](Cc2ccc(Cl)cc2)NC(=O)[C@H]2Cc3ccccc3CN2)CC1.Cl [Example 5] | 2.5 | 52% | – | – | – | – | 8
5 | CC(C)(C)NC(=O)C1(C2CCCCC2)CCN(CC[C@H](Cc2ccc(Cl)cc2)NC(=O)[C@H]2Cc3ccccc3CN2)CC1.Cl [Example 6] | 1 | no activation | – | – | – | – | –
6 | CC(C)(C)NC(=O)C1(C2CCCCC2)CCN(C[C@H](Cc2ccc(Cl)cc2)NC(=O)c2cc(=O)c3ccccc3o2)CC1 [Example 28] | 2.3 | no activation | – | – | – | – | –
7 | CC(C)(C)NC(=O)C1(C2CCCCC2)CCN(C[C@@H](Cc2ccc(Cl)cc2)NC(=O)c2cc(=O)c3ccccc3o2)CC1 [Example 29] | 2.6 | no activation | – | – | – | – | –
8 | CC(C)(C)NC(=O)C1(C2CCCCC2)CCN(CC[C@@H](Cc2ccc(Cl)cc2)NC(=O)c2cc(=O)c3ccccc3o2)CC1 [Example 30] | 2.1 | no activation | – | – | – | – | –
9 | CC(C)(C)NC(=O)C1(C2CCCCC2)CCN(CC[C@H](Cc2ccc(Cl)cc2)NC(=O)c2cc(=O)c3ccccc3o2)CC1 [Example 31] | 0.061 | no activation | active | 1100 | 380 | – | –
